In ChEMBL document CHEMBL1149390, “Potent CYP19 (aromatase) 1-[(benzofuran-2-yl)(phenylmethyl)pyridine, -imidazole, and -triazole inhibitors: synthesis and biological evaluation” (J Med Chem, 2006):
Activity calls are given as the source filed them. The rule behind the calls is not given here.

Tests used:
Hepatocyte [1] = experiment: cells; format: functional; settings: Rattus norvegicus, 24 h, read-out: LC50 (the source's name)
Hepatocyte [2] = settings: Rattus norvegicus

SMILES	CC50 (Hepatocyte [1]) [µM]	LC50 (Hepatocyte [2])
CC(C)(C#N)c1cc(Cn2cncn2)cc(C(C)(C)C#N)c1 [ANASTROZOLE]	> 200	–
COc1ccc2cc(C(c3ccc(F)cc3)n3cncn3)oc2c1 (stereo not drawn)	100	inactive
COc1ccc(C(c2cc3ccc(OC)cc3o2)n2cncn2)cc1 (stereo not drawn)	90	inactive
COc1ccc2cc(C(c3ccc(Cl)cc3)n3cncn3)oc2c1 (stereo not drawn)	50	inactive
COc1ccc(C(c2cc3ccc(OC)cc3o2)n2ccnc2)cc1 (stereo not drawn)	50	inactive
COc1ccc2cc(C(O)(c3ccc(F)cc3)c3cccnc3)oc2c1 (stereo not drawn)	> 100	inactive
COc1ccc(C(O)(c2cccnc2)c2cc3ccc(OC)cc3o2)cc1 (stereo not drawn)	100	inactive
